Source: US7732200B2, “Materials and methods for nerve grafting, selection of nerve grafts, and in vitro nerve tissue culture” (University of Florida Research Foundation, Inc., priority 2001, dated 2010)

Legend:
[1] = test system: embryonic chick DRG neurons; assay: Cryoculture bioassay of chondroitinase-treated acellular rat nerve segments; format: cell-based
From the text: (§1) Preparation of acellular nerve grafts treated with chondroitinase: Adult (180-200 g) female SPRAGUE DAWLEY rats (HARLAN, Indianapolis, Ind.) were used as nerve donors and recipient hosts. Donor rats were anesthetized with halothane and decapitated. Sciatic nerves were exposed through a gluteal muscle-splitting incision and isolated free of underlying fascia. A 15-mm nerve segment was excised rostral to the bifurcation into common peroneal and tibial nerves. The segments were rinsed with cold sterile Ringer's solution, stabilized by pinning the ends to a thin plastic support, and transferred to a cryogenic vial. The vials were submerged in liquid nitrogen for 2 minutes and then transferred to a 37° C. water bath for 2 minutes. This freeze/thaw cycle was repeated, yielding acellular nerve grafts that were then stored in liquid nitrogen. On the day before grafting, the nerve grafts were warmed to room temperature and incubated in 100 μl phosphate buffered saline pH 7.4 (PBS) containing 2 units/ml chondroitinase ABC (SIGMA, St. Louis, Mo.) or in PBS (vehicle) only for 16 hours at 37° C. The grafts were rinsed twice with Ringer's and kept on ice prior to use. The chondroitinase ABC preparation was highly purified and stated by the manufacturer to be essentially free of protease activity.
Cryoculture bioassay. Cryoculture is a neurite outgrowth assay in which neurons are cultured directly on fresh/frozen nerve sections and was performed as described previously (Ferguson T A et al. [2000] Mol Cell Neurosci, 16:157-167). Briefly, chondroitinase- and vehicle-treated nerve segments were sectioned at 20 μm, mounted on sterile, aminopropyltriethoxysilane (APTS)-coated coverslips and stored at −20° C. until used. Where indicated, sections were treated with chondroitinase ABC (0.1 unit/ml) or vehicle (50 mM Tris-HCl, pH 8.0), containing 50 mM NaCl) for 2 h at 37° C. Purified dorsal root ganglionic (DRG) neurons from day 8 chick embryos were seeded directly on the nerve sections in a defined N2 medium (Bottenstein J E et al. [1980] Exp Cell Res 125:183-190) containing 10 ng/ml nerve growth factor. Cryoculture assays were terminated after 24 h of incubation by fixation with 100% methanol. Neuritic growth by DRG neurons was accessed by GAP-43 immunofluorescent labeling. […] Neurite lengths were measured directly using IMAGE-PRO PLUS software (MEDIA CYBERNETICS, Silver Springs, Md.). At least 250 neurons with neurites greater than one cell body (˜15 μm) were scored for each condition in each experiment.
Inactivation of inhibitory CSPG in chondroitinase-treated acellular nerve was determined by cryoculture bioassay. Embryonic chick DRG neurons were seeded onto sections of prepared nerve segments and the neurite-promoting activity was assessed by scoring neurite growth. […]

[2] = test system: sciatic nerve; assay: Axonal regeneration into acellular interpositional nerve grafts (GAP-43 profiles); format: in vivo, rat
From the text: as §1
Interpositional nerve grafting for chondroitinase experiments. Twelve rats received bilateral acellular nerve grafts, one chondroitinase-treated and one vehicle-treated graft. Host rats were deeply anesthetized using xylazine (15 mg/kg, i.m.) and ketamine (110 mg/kg, i.p.). The sciatic nerve was exposed and supported by a plastic insert placed between the nerve and underlying tissue. […]
The main grafts were sectioned serially on the transverse plane in recorded measure to assess the extent of axonal growth by microscopy. […] GAP-43-positive axon profiles were scored using IMAGE-PRO PLUS software (MEDIA CYBERNETICS, Silver Springs, Md.).
Immunocytochemistry. Axonal regeneration was assessed by GAP-43 immunofluorescence and digital image analysis. […]

[3] = test system: CSPG; assay: CSPG neoepitope immunolabeling of chondroitinase-treated human nerve segments
From the text: Many of the experiments described in the examples above performed using rat nerves also have been replicated using human nerve. Except where otherwise indicated, the procedures described in Examples 1 and 2 using rat nerve were also followed in Examples 6 and 7 using human nerve. Human sural and tibial nerves were obtained fresh from surgical leg amputation.
Human nerves were first examined to determine if their content of CSPG and laminin was similar to that observed in rat nerves. […] Human nerves stained for CSPG neoepitope and laminin are shown, respectively, in FIGS. 9A and 9B.

[4] = test system: chick DRG neurons; assay: Cryoculture assay using human nerve segments; format: cell-based; settings: DRG neurons 24 h; P<0.001 vs vehicle
Description: Cryoculture bioassay. Cryoculture is a neurite outgrowth assay in which neurons are cultured directly on fresh/frozen nerve sections and was performed as described previously (Ferguson T A et al. [2000] Mol Cell Neurosci, 16:157-167). Briefly, chondroitinase- and vehicle-treated nerve segments were sectioned at 20 μm, mounted on sterile, aminopropyltriethoxysilane (APTS)-coated coverslips and stored at −20° C. until used. Where indicated, sections were treated with chondroitinase ABC (0.1 unit/ml) or vehicle (50 mM Tris-HCl, pH 8.0), containing 50 mM NaCl) for 2 h at 37° C. Purified dorsal root ganglionic (DRG) neurons from day 8 chick embryos were seeded directly on the nerve sections in a defined N2 medium (Bottenstein J E et al. [1980] Exp Cell Res 125:183-190) containing 10 ng/ml nerve growth factor. Cryoculture assays were terminated after 24 h of incubation by fixation with 100% methanol. Neuritic growth by DRG neurons was accessed by GAP-43 immunofluorescent labeling. Epifluorescent photomicrographs were acquired as described for tissue sections. Neurite lengths were measured directly using IMAGE-PRO PLUS software (MEDIA CYBERNETICS, Silver Springs, Md.). At least 250 neurons with neurites greater than one cell body (˜15 μm) were scored for each condition in each experiment. […]

[5] = test system: sciatic nerve; assay: Axonal regeneration after sciatic nerve transection (neurotmesis) and neurorrhaphic repair; format: in vivo, rat

For chondroitinase ABC, the average neurite length ([1]; acellular nerve pretreated en bloc, DRG neurons 24 h) was 96 μm, the “increase in neurite growth compared to the control condition” value ([1]; en bloc treatment vs en bloc vehicle) was 95% and the “increase in neurite-promoting activity by post-treatment of sections” value ([1]; nerve treated en bloc with vehicle only, sections post-treated 0.1 unit/ml 2 h) was 86%. For the same substance, the “effect of post-treatment on sections from en bloc treated nerve” value ([1]; sections of en bloc chondroitinase-treated nerve grafts) was “only a slight additive effect”, the “axonal penetration vs control at 0.3 mm from the host-graft interface” value ([2]; 4-day grafts, 3 animals) was “five-fold greater” and the “average number of axons (GAP-43-immunopositive profiles) entering grafts vs control grafts” value ([2]; 8-day grafts, 9 rats with bilateral grafts) was “more than three-fold greater”. For the same substance, the “propensity of axons to grow within basal laminae” value ([2]; 8-day grafts, GAP-43 and laminin double label) was “unaltered”, the “CSPG side chain degradation by neoepitope labeling” value [3] was “effectively degraded” and the “growth-promoting properties of human nerves (neurite length)” value [4] was “increased”. For the same substance, the “score of axons immediately distal to the coaptation vs control” value ([5]; 1 U in 2 μl, 4 days after injury, 7 nerves per condition) was “two-fold greater”, the “animals in which the number of axons entering the distal nerve was greater than in the control nerve” value ([5]; 4 days after injury) was 7/7 and the “propensity of axons to regrow within basal laminae of the distal nerve” value ([5]; GAP-43 and laminin double-immunolabeling) was “unaltered”. The “animals with increases greater than 3.5-fold” value ([5]; axons immediately distal to coaptation, 4 days) was 3/7.
